Test results as given in US20050187240A1, “Aaptamine and isoaaptamine and structural modifications thereof” (The Arizona Board of Regents, Acting for and on behalf of …, priority 2004, published 2005).
≈ marks a conversion by molar mass, not a printed value. Where two headings read alike, the source gives them in different places.

Key:
Enterococcus faecalis = assay: Broth microdilution susceptibility assay, Enterococcus faecalis; format: cell-based
Candida albicans = assay: Broth microdilution susceptibility assay, Candida albicans; format: cell-based
prostrate DU-145 = assay: Cancer cell growth inhibition, prostate DU-145; format: cell-based, human; details: for IC50: Homo sapiens
Method: (§1) Biology The cancer cell growth inhibitory properties were examined using the murine P388 lymphocytic leukemia cell line and a selection of human cancer cell lines.
(§2) All of the synthetic products were evaluated against a minipanel of human cancer cell lines, the murine P388 lymphocytic leukemia cell line and a selection of microorganisms.

Staphylococcus aureus = assay: Broth microdilution susceptibility assay, Staphylococcus aureus; format: cell-based
Cryptococcus neoformans = assay: Broth microdilution susceptibility assay, Cryptococcus neoformans; format: cell-based
[1] = tested on: Stenotrophomonas maltophilia; assay: Broth microdilution susceptibility assay, Stenotrophomonas maltophilia; format: cell-based
CNS SF-268 = assay: Cancer cell growth inhibition, CNS SF-268; format: cell-based, human; details: CNS SF-268; for IC50: Homo sapiens
Method: as §1, §2

PKC alpha [2] = biological target: T1, PKC alpha (Homo sapiens, UniProt P17252); assay: Inhibition of PKC catalytic activity (peptide substrate phosphorylation); format: biochemical
Source text: We further evaluated the ability of the derivatives to inhibit PKC catalytic activity. […] Inhibition by 10c was 19.5±7.6% and inhibition by 4, 5, and 9a, b, c was 6% or less (all values are mean±SEM, three experiments). […] In both cases, the inhibition curves were steeper than predicted for a competitive inhibitor, consistent with a complicated mechanism of action (Hill coefficients for 10a and 10b of 1.5±0.1 and 2.0±0.5, respectively).

breast MCF-7 = assay: Cancer cell growth inhibition, breast MCF-7; format: cell-based, human; details: breast MCF-7; for IC50: Homo sapiens, MCF7
Method: as §1, §2

pancreas BXPC-3 = assay: Cancer cell growth inhibition, pancreas BXPC-3; format: cell-based, human; details: pancreas BXPC-3; for IC50: Homo sapiens
Method: as §1, §2

[3] = tested on: Mycobacterium tuberculosis H37Rv; assay: Microplate Alamar Blue Assay, Mycobacterium tuberculosis; format: cell-based; details: 6.25 μg/ml
[4] = tested on: murine P388 lymphocytic leukemia cell line; assay: Cancer cell growth inhibition, murine P388 lymphocytic leukemia cell line; format: cell-based; details: for IC50: Mus musculus
Source text: (§3) Evaluation of demethyloxyaaptamine (3), aaptamine (1), isoaaptamine (2) and hystatin 1 (11) against the Arizona State University Cancer Research Institute's human tumor cell line panel (Table 1) and the NCI 60-cell line human tumor screen were undertaken. (Boyd, M. R., Cancer: Principles and Practices of Oncology Updates; DeVita, et al., Eds; Lippincott: Philadelphia, 1989, Vol. 10, No. 3, pp. 1-12; Boyd, et al., Drug Development Research 1995, 34, 91-109; Boyd, M. R., et al. Cytotoxic Anticancer Drugs: Models and Concepts for Drug Discovery and Development; Valeriote, A., et al., Eds, Kluwer Academic Publishers: Amsterdam, 1992, pp. 11-34.)
as §1, §2

Enterobacter cloacae = assay: Broth microdilution susceptibility assay, Enterobacter cloacae; format: cell-based
Streptococcus pneumoniae = assay: Broth microdilution susceptibility assay, Streptococcus pneumoniae; format: cell-based
colon KM 20L2 = assay: Cancer cell growth inhibition, colon KM 20L2; format: cell-based, human; details: colon KM 20L2; for IC50: Homo sapiens
Source text: as §3, §1, §2

Micrococcus luteus = assay: Broth microdilution susceptibility assay, Micrococcus luteus; format: cell-based
lung NCI-H460 = assay: Cancer cell growth inhibition, lung NCI-H460; format: cell-based, human; details: lung NCI-H460; for IC50: Homo sapiens
Source text: as §3, §1, §2

Neisseria gonorrhoeae = assay: Broth microdilution susceptibility assay, Neisseria gonorrhoeae; format: cell-based
PKC alpha [5] = biological target: T1, PKC alpha; assay: Inhibition of [3H]phorbol 12,13-dibutyrate binding to PKC alpha; details: 30 μM compound; read-out: inhibition of [3H]phorbol 12,13-dibutyrate binding to PKC alpha
Method: Isoaaptamine (2) and derivatives 4, 5, 7, 8, and 14-18 were evaluated as ligands for PKC, based on the initial report of activity for isoaaptamine (Patil, et al., PCT Int. Appl. WO 95/0584 March 1995). Activity was measured at 30 μM compound using inhibition of [^3H-20]phorbol 12,13-dibutyrate binding to PKC alpha as described previously (Kazanietz, M. G., et al., Molecular Pharmacol., 1993, 44, 298). Assays were carried out with triplicate measurements in either single or triplicate experiments, depending on the compound.
Compounds 4, 5, 9a-c, and 10a-d were evaluated as ligands for PKC, based on the initial report of activity for isoaaptamine. Activity was measured at 30 μM compound using inhibition of [20-^3H]phorbol 12,13-dibutyrate binding to PKC alpha as described previously (Kazanietz, M. G., et al., Characterization of Ligand and Substrate Specificity for the Calcium-Dependent and Calcium-Independent Protein Kinase C Isoenzymes, Molecular Pharmacol. 1993, 44, 298-307). Assays were carried out with triplicate measurement in either single or triplicate experiments, depending on the compound. Inhibition by 9a and 9b was 6.4% and 9.2%, respectively. That by 10a, 10b, and 10d was 11.8%, 12.6%, and 16.0%, respectively. That by other derivatives was 5% or less. We conclude that these compounds show only very weak activity as ligands for PKC.

Escherichia coli = assay: Broth microdilution susceptibility assay, Escherichia coli; format: cell-based
[6] = Stability of the substance (observation); format: physicochemical
Source text: When newly isolated, isoaaptamine (2) appears as a yellow colored powder that rapidly changes to dark green and finally brown or black, presumably due to air oxidation. […] For that purpose, isoaaptamine (2) was first phosphorylated with dibenzylphosphate (Pettit, G. R. et al., Anti-Cancer Drug Design 2000, 15, 203-216; Silverberg, L. J., Tetrahedron Lett. 1996, 37, 771-774). […] Scheme 2 below illustrates the aforementioned synthesis method. [drawing 17] Biology

ovary OVCAR-3 = assay: Cancer cell growth inhibition, ovary OVCAR-3; format: cell-based, human; details: Table 1
Source text: (§4) (Boyd, M. R., Cancer: Principles and Practices of Oncology Updates; […], et al., Eds; Lippincott: Philadelphia, 1989, Vol. 10, No. 3, pp. 1-12; Boyd, et al., Drug Development Research 1995, 34, 91-109; Boyd, M. R., et al. Cytotoxic Anticancer Drugs: Models and Concepts for Drug Discovery and Development; Valeriote, A., et al., Eds, Kluwer Academic Publishers: Amsterdam, 1992, pp. 11-34.)

tubulin = assay: Tubulin polymerization (assembly) inhibition; format: biochemical; details: b138 series; 20 minutes incubation at 30° C.; read-out: IC50 for inhibition of extent of tubulin assembly
Method: Only minimal inhibitory activity was observed. While compounds 15 and 8 did inhibit the rate of polymerization by over 50% at 40 μM (the highest concentration examined), an IC50 value for inhibition of assembly extent was obtained only for compound 18. […] Thus, it seems unlikely that the cytotoxic mechanism for these aaptamine analogs derives from an interaction with tubulin.
A number of the aaptamine derivatives whose synthesis is described here were examined for potential effects on tubulin assembly. These were compounds 2, 4, 5, 9a-c, and 10a-d. […] For comparison, in experiments performed contemporaneously, the potent colchicine site drug combretastatin A-4 yielded an IC50 value of about 2 μM.

renal A498 = assay: Cancer cell growth inhibition, renal A498; format: cell-based, human; details: Table 1
Source text: as §4

melanoma SK-MEL-5 = assay: Cancer cell growth inhibition, melanoma SK-MEL-5; format: cell-based, human; details: Table 1
Source text: as §4

CNS SF-295 = assay: Cancer cell growth inhibition, CNS SF-295; format: cell-based, human; details: Table 1
Source text: as §4

[7] = Table 5, read-out: Cancer Cell Line Results ED50
[8] = Table 2, read-out: Range of minimum inhibitory concentration
[9] = Table 3, read-out: Cancer cell growth inhibitory ED50
[10] = Table 1, read-out: Cancer Cell Line Results ED50

COc1ccc(CN2C=Cc3cc(OC)c(OC)c4c3c2cc[n+]4Cc2ccc(OC)cc2)cc1.[Br-] [Compound 10b, 8,9-Dimethoxy-1,4-bis-(4-methoxybenzyl)-4H-benzo-[de][1,6]naphthyridin-1-ium bromide]
Range of minimum inhibitory concentration (Enterococcus faecalis; Table 6): 16 to 32 µg/mL
Range of minimum inhibitory concentration (Candida albicans; Table 6): * (no inhibition at 64 μg/mL)
IC50 (prostrate DU-145; DU-145, Table 5, prostate DRU-145, read-out: Cancer Cell Line Results ED50): 0.1 µg/mL
Range of minimum inhibitory concentration (Staphylococcus aureus; Table 6): 4 µg/mL
Range of minimum inhibitory concentration (Cryptococcus neoformans; Table 6): 32 to 64 µg/mL
Range of minimum inhibitory concentration ([1]; Table 6): * (no inhibition at 64 μg/mL)
IC50 (CNS SF-268; [7]): 0.27 µg/mL
Hill coefficient of PKC inhibition curve (PKC alpha [2]): 2.0±0.5
inhibition at 30 µM (PKC alpha [2]; 30 μM compound, 1 μM phorbol 12-myristate 13-acetate, 100 μg/ml phospholipid, mean±SEM, three experiments, read-out: percent inhibition of PKC catalytic activity): 84.6 ± 1.1%
IC50 (PKC alpha [2]; complete dose response curves, mean±SEM, 3 experiments, read-out: ID50 for inhibition of PKC catalytic activity): 7.4 ± 1.2 µM
IC50 (breast MCF-7; [7]): 0.39 µg/mL
IC50 (pancreas BXPC-3; [7]): 0.11 µg/mL
inhibition at 6.25 µg/mL [3]: 97%
IC50 ([4]; Table 5, leukemia P388, read-out: Cancer Cell Line Results ED50): 1.3 µg/mL
Range of minimum inhibitory concentration (Enterobacter cloacae; Table 6): * (no inhibition at 64 μg/mL)
Range of minimum inhibitory concentration (Streptococcus pneumoniae; Table 6): 16 to 32 µg/mL
IC50 (colon KM 20L2; [7]): 0.13 µg/mL
Range of minimum inhibitory concentration (Micrococcus luteus; Table 6): <0.5 µg/mL
IC50 (lung NCI-H460; [7]): 0.33 µg/mL
Range of minimum inhibitory concentration (Neisseria gonorrhoeae; Table 6): 4 µg/mL
inhibition at 30 µM (PKC alpha [5]): 12.6%
Range of minimum inhibitory concentration (Escherichia coli; Table 6): * (no inhibition at 64 μg/mL)

COc1cc2ccnc3c2c(c1O)N(C)C=C3 [Compound 2, isoaaptamine]
MIC (Enterococcus faecalis; [8]): 32 to 64 µg/mL (≈ 140 to 280 µM)
Range of minimum inhibitory concentration (Candida albicans; Table 2): * (no inhibition at 64 ug/ml)
IC50 (prostrate DU-145; Table 3, prostrate DU-145, read-out: Cancer cell growth inhibitory ED50): 3.3 µg/mL (≈ 14.5 µM)
MIC (Staphylococcus aureus; [8]): 16 to 32 µg/mL (≈ 70.1 to 140 µM)
MIC (Cryptococcus neoformans; [8]): 64 µg/mL (≈ 280 µM)
stability [6]: relatively unstable
Range of minimum inhibitory concentration ([1]; Table 2): * (no inhibition at 64 ug/ml)
IC50 (CNS SF-268; [9]): 2.2 µg/mL (≈ 9.64 µM)
Cancer Cell Line Results ED50 (ovary OVCAR-3): 1.20 µg/mL
IC50 (breast MCF-7; [9]): 2.2 µg/mL (≈ 9.64 µM)
IC50 (pancreas BXPC-3; [9]): 4.1 µg/mL (≈ 18 µM)
IC50 ([4]; P388, Table 3, leukemia P-388, read-out: Cancer cell growth inhibitory ED50): 1.6 µg/mL (≈ 7.01 µM)
IC50 ([4]; Table 1, leukemia murine P388, read-out: Cancer Cell Line Results ED50): 0.28 µg/mL (≈ 1.23 µM)
P388 ED50 ([4]; murine P388): 0.28 µg/mL
IC50 (tubulin): 31 µM
Range of minimum inhibitory concentration (Enterobacter cloacae; Table 2): * (no inhibition at 64 ug/ml)
Cancer Cell Line Results ED50 (renal A498): 2.20 µg/mL
MIC (Streptococcus pneumoniae; [8]): 8 to 32 µg/mL (≈ 35 to 140 µM)
IC50 (colon KM 20L2; [10]): 2.3 µg/mL (≈ 10.1 µM)
IC50 (colon KM 20L2; [9]): > 10 µg/mL
Cancer Cell Line Results ED50 (melanoma SK-MEL-5): 1.60 µg/mL
MIC (Micrococcus luteus; [8]): 32 to 64 µg/mL (≈ 140 to 280 µM)
IC50 (lung NCI-H460; [10]): 2.4 µg/mL (≈ 10.5 µM)
IC50 (lung NCI-H460; [9]): 2.9 µg/mL (≈ 12.7 µM)
MIC (Neisseria gonorrhoeae; [8]): < 0.5 µg/mL
inhibition at 30 µM (PKC alpha [5]): 13%
Range of minimum inhibitory concentration (Escherichia coli; Table 2): * (no inhibition at 64 ug/ml)
Cancer Cell Line Results ED50 (CNS SF-295): 2.60 µg/mL

Disodium isoaaptamine 9-O-phosphate [Compound 11]
Range of minimum inhibitory concentration (Enterococcus faecalis; Table 2): * (no inhibition at 64 ug/ml)
Range of minimum inhibitory concentration (Candida albicans; Table 2): * (no inhibition at 64 ug/ml)
Cancer cell growth inhibitory ED50 (prostrate DU-145; Table 3, prostrate DU-145): 0.52 µg/mL
Range of minimum inhibitory concentration (Staphylococcus aureus; Table 2): 64 µg/mL
Range of minimum inhibitory concentration (Cryptococcus neoformans; Table 2): * (no inhibition at 64 ug/ml)
stability [6]: more stable
Range of minimum inhibitory concentration ([1]; Table 2): * (no inhibition at 64 ug/ml)
Cancer cell growth inhibitory ED50 (CNS SF-268; Table 3): 0.28 µg/mL
Cancer cell growth inhibitory ED50 (breast MCF-7; Table 3): 2.2 µg/mL
Cancer cell growth inhibitory ED50 (pancreas BXPC-3; Table 3): 0.74 µg/mL
Cancer Cell Line Results ED50 ([4]; Table 1, leukemia murine P388): 3.0 µg/mL
Cancer cell growth inhibitory ED50 ([4]; Table 3, leukemia P-388): 0.23 µg/mL
Range of minimum inhibitory concentration (Enterobacter cloacae; Table 2): * (no inhibition at 64 ug/ml)
Range of minimum inhibitory concentration (Streptococcus pneumoniae; Table 2): 16 to 32 µg/mL
Cancer Cell Line Results ED50 (colon KM 20L2; Table 1): >10 µg/mL
Cancer cell growth inhibitory ED50 (colon KM 20L2; Table 3): 0.88 µg/mL
Range of minimum inhibitory concentration (Micrococcus luteus; Table 2): * (no inhibition at 64 ug/ml)
Cancer Cell Line Results ED50 (lung NCI-H460; Table 1): >10 µg/mL
Cancer cell growth inhibitory ED50 (lung NCI-H460; Table 3): 1.9 µg/mL
Range of minimum inhibitory concentration (Neisseria gonorrhoeae; Table 2): <0.5 µg/mL
Range of minimum inhibitory concentration (Escherichia coli; Table 2): * (no inhibition at 64 ug/ml)
